Assay: Simulation of bioavailability: availability of test compound in standardised enteric juice
Conditions: enteric juice pH 8.3, 37 degrees Celsius; mean over the entire experiment (60-240 minutes); mean of two experiments
Protocol: 5 g of test compound either pure or in ethanolic solution was mixed with 5-20 g of the below mentioned carrier. After vigorously mixing ethanol was removed by evaporation.
The following carrier was used: diacetylated monoglyceride with the following fatty acid composition based on the monoglyceride: about 50% lauric acid (12:0), 20% myristic acid (14:0), 15% caprylic/capric acid (8:0 and 10:0) and 10% palmitic acid (16:0).
The pH was adjusted to 8.3.
0.500 g complex and 50 ml of standardised enteric juice was mixed in a 100 ml vessel and placed on a shaking water bath at 37 degrees Celsius under moderate agitation. As controls pure test compound corresponding to 0.500 g complex was used instead of 0.500 g complex.
Samples of 1.000 ml were collected after 60, 120, 180 and 240 minutes. The samples were extracted with 1.5 ml of 1-butanol. The concentration of test compound in the enteric juice was determined by an appropriate method (spectrophotometrically or by HPLC).

COC1=C(OC)C(=O)C(C/C=C(\C)CC/C=C(\C)CC/C=C(\C)CC/C=C(\C)CC/C=C(\C)CC/C=C(\C)CC/C=C(\C)CC/C=C(\C)CC/C=C(\C)CCC=C(C)C)=C(C)C1=O [Q10, coenzyme Q10]
availability in the complex form compared to pure test compound: 2,2 times

— patent publication US6087391A, “Method of rendering organic compounds soluble in fatty systems, novel chemical complexes of such compounds and various applications of the complexes” (priority 1994, dated 2000)
